Like-named read-outs stand apart in the source and are kept apart here.

For one assay, the target named is PI3K alpha (Homo sapiens, UniProt P42336). The experiment in a line: PI3K alpha in vitro inhibition. In kind it is biochemical. The protocol: (§1) The kinase or bromodomain inhibitory activity of a compound of the invention can be determined by routine methods known to the skilled artisan without undue experimentation, or by procuring relevant analysis by a commercial vendor offering such services. […] In vivo, PI3K inhibition can be determined from target tissue biopsies by standard tissue processing in which cells are disrupted and Western Blot analysis is performed to determine the presence or absence of pAKT (substrate of PI3K) relative to a control sample. PI3K inhibition assays and BTK inhibition assays are known in the art and can be procured commercially through vendors such as Reaction Biology (Malvern, PA). The activity of a compound of the invention as an inhibitor of a bromodomain-containing protein, such as a BET protein, including BRD2, BRD3, BRD4, and/or BRDT, or an isoform or mutant thereof, may be determined in vitro, in vivo, or in a cell line. In vitro assays include assays that determine inhibition of bromodomain-containing proteins. Alternatively, inhibitor binding may be determined by running a competition experiment where a provided compound is incubated with a bromodomain-containing protein, such as a BET protein bound to known ligands, labeled or unlabeled. In vitro bromodomain inhibition assays can be performed using Alpha Screen Technology (Perkin Elmer Life and Analytical Sciences, Shelton, CT). In vivo bromodomain inhibition can be determined indirectly by evaluating the amount of a protein whose gene transcription is influenced or controlled by the bromodomain protein, for example, MYCN protein transcription is controlled by BRD4 (J.E. Delmore et al., Cell 2011, 146, 904-917; A. Puissant, Cancer Discov. 2013, 3, 308-323).

The target of a further assay is PI3K delta (Homo sapiens, UniProt O00329). The experiment in a line: PI3K delta in vitro inhibition. In kind it is biochemical. As to the method: as §1
Sequence of PI3K delta (O00329 whole entry): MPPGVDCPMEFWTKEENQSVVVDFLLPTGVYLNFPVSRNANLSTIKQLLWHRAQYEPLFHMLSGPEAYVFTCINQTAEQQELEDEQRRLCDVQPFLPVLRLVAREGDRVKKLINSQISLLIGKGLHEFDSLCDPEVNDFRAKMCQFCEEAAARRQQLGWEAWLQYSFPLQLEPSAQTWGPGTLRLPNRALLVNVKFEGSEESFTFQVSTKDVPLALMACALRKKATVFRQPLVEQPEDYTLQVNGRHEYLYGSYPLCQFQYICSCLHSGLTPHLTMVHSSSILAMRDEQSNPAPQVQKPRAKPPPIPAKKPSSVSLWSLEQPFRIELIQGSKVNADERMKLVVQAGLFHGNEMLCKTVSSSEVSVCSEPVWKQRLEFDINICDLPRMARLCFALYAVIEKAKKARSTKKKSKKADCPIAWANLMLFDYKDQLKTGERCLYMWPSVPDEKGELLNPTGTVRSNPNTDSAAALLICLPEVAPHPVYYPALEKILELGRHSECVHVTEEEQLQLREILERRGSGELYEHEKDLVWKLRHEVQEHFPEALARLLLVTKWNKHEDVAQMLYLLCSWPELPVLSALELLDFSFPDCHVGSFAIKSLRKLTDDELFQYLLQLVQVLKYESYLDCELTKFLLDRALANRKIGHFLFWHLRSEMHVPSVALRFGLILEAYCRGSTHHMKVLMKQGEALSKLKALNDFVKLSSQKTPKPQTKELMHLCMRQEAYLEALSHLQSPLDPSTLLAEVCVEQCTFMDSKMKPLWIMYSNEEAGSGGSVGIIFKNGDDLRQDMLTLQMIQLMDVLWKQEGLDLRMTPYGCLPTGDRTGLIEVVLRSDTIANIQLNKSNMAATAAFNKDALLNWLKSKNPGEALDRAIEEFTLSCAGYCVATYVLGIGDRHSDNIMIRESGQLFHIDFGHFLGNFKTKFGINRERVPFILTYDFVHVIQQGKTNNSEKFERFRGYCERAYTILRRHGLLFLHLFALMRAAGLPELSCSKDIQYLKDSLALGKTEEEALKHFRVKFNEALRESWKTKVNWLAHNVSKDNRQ
Sequence of PI3K delta (P27986 whole entry partner): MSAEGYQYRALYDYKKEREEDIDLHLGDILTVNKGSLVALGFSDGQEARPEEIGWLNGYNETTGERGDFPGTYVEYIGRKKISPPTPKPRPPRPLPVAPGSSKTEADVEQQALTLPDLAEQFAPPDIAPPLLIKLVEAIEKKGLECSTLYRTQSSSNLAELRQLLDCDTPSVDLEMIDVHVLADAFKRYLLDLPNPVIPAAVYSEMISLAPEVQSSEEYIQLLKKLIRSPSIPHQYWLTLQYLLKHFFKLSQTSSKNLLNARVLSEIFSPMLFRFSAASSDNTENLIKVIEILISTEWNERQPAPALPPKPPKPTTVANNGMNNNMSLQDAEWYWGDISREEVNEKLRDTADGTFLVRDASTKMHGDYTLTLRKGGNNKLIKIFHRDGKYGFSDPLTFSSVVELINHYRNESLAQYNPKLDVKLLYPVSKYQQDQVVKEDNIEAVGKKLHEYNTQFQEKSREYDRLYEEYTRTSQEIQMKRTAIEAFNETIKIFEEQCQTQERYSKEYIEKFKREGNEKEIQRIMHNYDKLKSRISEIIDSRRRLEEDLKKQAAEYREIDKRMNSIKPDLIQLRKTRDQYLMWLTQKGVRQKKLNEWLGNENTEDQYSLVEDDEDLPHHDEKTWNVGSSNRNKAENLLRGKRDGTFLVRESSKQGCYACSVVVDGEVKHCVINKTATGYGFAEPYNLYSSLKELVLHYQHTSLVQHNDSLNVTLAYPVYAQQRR
(§2) IC50 inhibition data against the indicated targets were determined for compounds of the invention using standard in vitro assays (Tables 8 and 9).

The next assay has as its target T1, BRD4-2 (Homo sapiens, UniProt O60885).
T1 construct: BRD4-2
The experiment in a line: BRD4-2 in vitro inhibition. It is filed as binding. As to the method:
as §1

Another assay addresses T2, BRD4-1 (Homo sapiens, UniProt O60885).
T2 construct: BRD4-1
The experiment in a line: BRD4-1 in vitro inhibition. In kind it is binding. As to the method: as §1

The target of another assay is PI3K gamma (Homo sapiens, UniProt P48736). The experiment in a line: PI3K gamma in vitro inhibition. It is filed as biochemical. As to the method:
as §1, §2

A further assay concerns the target CDK6 cyclinD1 (Homo sapiens, UniProt Q00534). The experiment in a line: CDK6 cyclinD1 in vitro inhibition. In kind it is biochemical. The protocol: as §1, §2
The next assay has as its target CDK4 cyclinD1 (Homo sapiens, UniProt P11802). The experiment in a line: CDK4 cyclinD1 in vitro inhibition. In kind it is biochemical. As to the method:
as §1, §2

The target in another assay is mTOR (Homo sapiens, UniProt P42345). The experiment in a line: mTOR in vitro inhibition. In kind it is biochemical. The protocol: as §1, §2
Another assay addresses BTK (Homo sapiens, UniProt Q06187). The experiment in a line: BTK in vitro inhibition. In kind it is biochemical. As to the method: as §1, §2
In a further assay the target is BTK C481S (Homo sapiens, UniProt Q06187, C481S). The experiment in a line: BTK C481S in vitro inhibition. It is filed as biochemical. As to the method:
as §1, §2

For another assay, the target named is PI3K beta (Homo sapiens, UniProt P42338). The experiment in a line: PI3K beta in vitro inhibition. It is filed as biochemical. As to the method: as §1
The target of another assay is Syk (Homo sapiens, UniProt P43405). The experiment in a line: Syk in vitro inhibition. In kind it is biochemical. As to the method: as §1, §2
Where [1] appears, read: read-out: IC50 inhibition PI3K gamma.

Sequence of PI3K gamma (P48736 whole entry): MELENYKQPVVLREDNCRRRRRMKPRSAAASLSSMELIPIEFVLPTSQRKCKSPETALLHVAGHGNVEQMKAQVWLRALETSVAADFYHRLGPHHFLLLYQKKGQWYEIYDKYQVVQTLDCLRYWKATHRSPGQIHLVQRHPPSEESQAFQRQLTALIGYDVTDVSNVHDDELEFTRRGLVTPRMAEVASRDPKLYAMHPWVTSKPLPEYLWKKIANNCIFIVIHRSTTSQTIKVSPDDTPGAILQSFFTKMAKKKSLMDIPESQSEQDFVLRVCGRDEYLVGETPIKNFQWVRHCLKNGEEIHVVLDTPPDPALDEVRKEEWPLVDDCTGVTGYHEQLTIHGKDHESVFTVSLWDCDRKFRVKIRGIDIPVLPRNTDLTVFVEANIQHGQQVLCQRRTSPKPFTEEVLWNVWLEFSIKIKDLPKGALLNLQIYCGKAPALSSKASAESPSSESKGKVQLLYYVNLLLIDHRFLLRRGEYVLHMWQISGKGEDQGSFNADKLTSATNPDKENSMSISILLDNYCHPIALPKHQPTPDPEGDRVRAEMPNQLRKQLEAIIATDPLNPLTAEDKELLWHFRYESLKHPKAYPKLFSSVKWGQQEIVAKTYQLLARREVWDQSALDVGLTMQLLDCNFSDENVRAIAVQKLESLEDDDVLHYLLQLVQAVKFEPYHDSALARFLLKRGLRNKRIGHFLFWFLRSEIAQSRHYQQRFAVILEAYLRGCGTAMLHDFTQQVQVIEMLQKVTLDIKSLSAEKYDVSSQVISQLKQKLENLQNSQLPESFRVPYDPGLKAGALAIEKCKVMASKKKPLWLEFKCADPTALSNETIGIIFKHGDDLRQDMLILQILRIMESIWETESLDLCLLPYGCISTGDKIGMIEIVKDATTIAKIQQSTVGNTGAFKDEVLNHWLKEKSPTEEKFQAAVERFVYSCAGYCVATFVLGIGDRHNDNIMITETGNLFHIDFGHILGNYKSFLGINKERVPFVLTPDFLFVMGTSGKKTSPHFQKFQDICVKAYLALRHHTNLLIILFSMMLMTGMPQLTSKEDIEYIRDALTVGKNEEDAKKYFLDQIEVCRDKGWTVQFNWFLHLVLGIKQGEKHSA
Sequence of BTK C481S (Q06187 whole entry C481S): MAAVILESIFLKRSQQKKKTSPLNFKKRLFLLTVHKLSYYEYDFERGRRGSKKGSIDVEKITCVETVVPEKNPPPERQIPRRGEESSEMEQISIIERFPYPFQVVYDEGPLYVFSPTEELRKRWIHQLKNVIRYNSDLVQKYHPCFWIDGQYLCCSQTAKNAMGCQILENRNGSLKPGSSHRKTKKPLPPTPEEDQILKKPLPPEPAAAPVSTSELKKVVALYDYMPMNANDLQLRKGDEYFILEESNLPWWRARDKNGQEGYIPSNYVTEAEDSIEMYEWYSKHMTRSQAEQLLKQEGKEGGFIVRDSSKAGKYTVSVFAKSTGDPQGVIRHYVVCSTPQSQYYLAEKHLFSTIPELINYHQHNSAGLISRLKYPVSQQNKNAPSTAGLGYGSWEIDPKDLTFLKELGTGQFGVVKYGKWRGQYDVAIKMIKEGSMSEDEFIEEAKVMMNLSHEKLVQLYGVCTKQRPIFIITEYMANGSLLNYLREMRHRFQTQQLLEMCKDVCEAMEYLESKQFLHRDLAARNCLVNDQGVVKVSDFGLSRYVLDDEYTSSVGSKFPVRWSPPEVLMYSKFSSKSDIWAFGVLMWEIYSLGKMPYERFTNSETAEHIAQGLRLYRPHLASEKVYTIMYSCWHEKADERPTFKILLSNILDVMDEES
Sequence of BTK (Q06187 whole entry): as the sequence (Q06187 whole entry C481S) above, with S481C counted along it
Sequence of CDK4 cyclinD1 (P11802 whole entry): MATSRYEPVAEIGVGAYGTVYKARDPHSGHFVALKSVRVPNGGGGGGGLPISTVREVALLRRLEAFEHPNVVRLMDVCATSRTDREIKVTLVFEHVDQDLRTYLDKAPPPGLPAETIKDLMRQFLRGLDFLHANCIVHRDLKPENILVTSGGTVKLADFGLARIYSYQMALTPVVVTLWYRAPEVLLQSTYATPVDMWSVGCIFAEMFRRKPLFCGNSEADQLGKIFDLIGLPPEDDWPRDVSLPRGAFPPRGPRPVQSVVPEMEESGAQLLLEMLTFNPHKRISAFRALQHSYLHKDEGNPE
Sequence of CDK4 cyclinD1 (P24385 whole entry partner): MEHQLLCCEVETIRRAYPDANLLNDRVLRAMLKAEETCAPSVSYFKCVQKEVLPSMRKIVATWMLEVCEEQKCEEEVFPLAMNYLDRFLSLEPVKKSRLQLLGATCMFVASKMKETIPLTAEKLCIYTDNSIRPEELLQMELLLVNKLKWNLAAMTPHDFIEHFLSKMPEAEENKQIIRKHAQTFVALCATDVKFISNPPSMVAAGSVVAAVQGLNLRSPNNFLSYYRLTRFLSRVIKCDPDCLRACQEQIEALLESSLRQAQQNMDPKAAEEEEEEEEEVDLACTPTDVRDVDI
Sequence of CDK6 cyclinD1 (Q00534 whole entry): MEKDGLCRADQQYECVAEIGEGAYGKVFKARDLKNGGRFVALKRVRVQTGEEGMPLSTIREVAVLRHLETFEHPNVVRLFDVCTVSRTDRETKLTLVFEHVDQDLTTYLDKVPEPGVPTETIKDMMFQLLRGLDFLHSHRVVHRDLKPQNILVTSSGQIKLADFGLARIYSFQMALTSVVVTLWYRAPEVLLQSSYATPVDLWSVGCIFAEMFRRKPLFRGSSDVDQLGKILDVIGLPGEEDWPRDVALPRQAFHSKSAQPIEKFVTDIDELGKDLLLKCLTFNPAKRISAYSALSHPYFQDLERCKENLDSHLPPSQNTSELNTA
Sequence of CDK6 cyclinD1 (P24385 whole entry partner): as the sequence (P24385 whole entry partner) above

Take `O=c1cc(N2CCOCC2)oc2c(C#Cc3ccsc3)csc12` [Compound 5-1]: the IC50 (commonly the concentration that gives 50% inhibition) against PI3K alpha was less than 500 nM; on PI3K delta, less than 500 nM; against BRD4-2, 10000 to 45000 nM; at BRD4-1, 10000 to 45000 nM; at PI3K gamma (setting [1]) it was less than 500 nM.
Regarding `COc1ccc(C#Cc2csc3c(=O)cc(N4CCOCC4)oc23)cc1` [Compound 5-2], the IC50 against PI3K alpha was less than 500 nM; against PI3K delta, less than 500 nM; against BRD4-2 it was 1000 to 10000 nM; on BRD4-1, 500 to 1000 nM; against PI3K gamma (IC50 inhibition PI3K gamma) it was 500 to 1000 nM.
With `COc1cc(C#Cc2csc3c(=O)cc(N4CCOCC4)oc23)cc(OC)c1` [Compound 5-3], the IC50 on PI3K alpha was 500 to 1000 nM; against PI3K delta it was less than 500 nM; at BRD4-2, 500 to 1000 nM; at BRD4-1, less than 500 nM; on PI3K gamma (setting [1]), 1000 to 10000 nM.
Consider `O=c1cc(N2CCOCC2)oc2c(C#Cc3ccccc3)csc12` [Compound 5-4], for which the IC50 against PI3K alpha is less than 500 nM; on PI3K delta, less than 500 nM; on BRD4-2 it was 10000 to 45000 nM; on BRD4-1, 1000 to 10000 nM; at PI3K gamma (setting [1]) it was less than 500 nM.
As to `CN(C)C(=O)c1cc2cnc(Nc3ccc(-c4csc5c(=O)cc(N6CCOCC6)oc45)cc3)nc2n1C1CCCC1` [Compound 6], the IC50 was less than 500 nM against CDK6 cyclinD1, less than 500 nM against CDK4 cyclinD1, 1000 to 10000 nM at mTOR and 1000 to 10000 nM on PI3K gamma (setting [1]).
As for `Cc1nc2c(F)cc(-c3nc(Nc4ccc(-c5csc6c(=O)cc(N7CCOCC7)oc56)cc4)ncc3F)cc2n1C(C)C` [Compound 25-1], the IC50 against CDK6 cyclinD1 is less than 500 nM; against CDK4 cyclinD1, less than 500 nM; on PI3K alpha, 10000 to 45000 nM; on PI3K delta, 1000 to 10000 nM; on BRD4-2, more than 45000 nM; on BRD4-1, more than 45000 nM. The IC50 at PI3K gamma (setting [1]) is more than 45000 nM.
As for `CC(=O)c1c(C)c2cnc(Nc3ccc(-c4csc5c(=O)cc(N6CCOCC6)oc45)cc3)nc2n(C2CCCC2)c1=O` [Compound 25-2], the IC50 on CDK6 cyclinD1, against CDK4 cyclinD1, at PI3K alpha, at PI3K delta, at BRD4-2 and against BRD4-1 was less than 500 nM in each case. Further, the half-maximal inhibitory concentration (IC50) on PI3K gamma (setting [1]) was 1000 to 10000 nM.
With `CC(C)(C)OC(=O)Nc1cc2cnc(Nc3ccc(-c4csc5c(=O)cc(N6CCOCC6)oc45)cc3)nc2n1C1CCCC1` [Compound 25-3], the IC50 on CDK6 cyclinD1 is less than 500 nM; against CDK4 cyclinD1 it was less than 500 nM; against PI3K alpha, less than 500 nM; against PI3K delta it was less than 500 nM; on BRD4-2, 500 to 1000 nM; against BRD4-1, less than 500 nM. Also, the IC50 at PI3K gamma (setting [1]) was in the range of 1000 to 10000 nM.
`C=CS(=O)(=O)N(c1cc(-c2csc3c(=O)cc(N4CCOCC4)oc23)ccc1OC)S(=O)(=O)C=C` [Compound 49]: the IC50 is less than 500 nM at PI3K alpha; less than 500 nM on BTK; 10000 to 45000 nM at BTK C481S; less than 500 nM against PI3K beta; 1000 to 10000 nM against BRD4-2; less than 500 nM on BRD4-1. Besides, on PI3K gamma (setting [1]), the IC50 is less than 500 nM.
For the compound `C=CS(=O)(=O)N(c1cccc(-c2csc3c(=O)cc(N4CCOCC4)oc23)c1)S(=O)(=O)C=C` [Compound 50], the IC50 was less than 500 nM against PI3K alpha; less than 500 nM at BTK; 10000 to 45000 nM against BTK C481S; less than 500 nM at PI3K beta; less than 500 nM against BRD4-2; less than 500 nM at BRD4-1. The IC50 at PI3K gamma (setting [1]) is less than 500 nM.
In the case of `C=CS(=O)(=O)N(CCS(=O)(=O)N(c1cc(-c2csc3c(=O)cc(N4CCOCC4)oc23)ccc1OC)S(=O)(=O)C=C)c1cc(-c2csc3c(=O)cc(N4CCOCC4)oc23)ccc1OC` [Compound 51], the IC50 against PI3K alpha was less than 500 nM; at BTK it was 1000 to 10000 nM; against BTK C481S, 10000 to 45000 nM; on PI3K beta, less than 500 nM; on BRD4-2, less than 500 nM; against BRD4-1, 1000 to 10000 nM. For the same compound, the half-inhibitory concentration (IC50) on PI3K gamma (setting [1]) fell in the range of 500 to 1000 nM.
For the compound `Cc1nn(-c2ccnc(Nc3ccc(-c4csc5c(=O)cc(N6CCOCC6)oc45)cc3)n2)cc1CN1CC(O)C1` [Compound 52], the IC50 is less than 500 nM at CDK6 cyclinD1; 10000 to 45000 nM against CDK4 cyclinD1; less than 500 nM on Syk; 500 to 1000 nM at PI3K alpha; 1000 to 10000 nM against PI3K delta; more than 45000 nM against BRD4-2. Moreover, the IC50 was more than 45000 nM against BRD4-1 and 10000 to 45000 nM on PI3K gamma (setting [1]).
In the case of `Cc1nn(-c2ccnc(Nc3ccc(-c4csc5c(=O)cc(N6CCNCC6)oc45)cc3)n2)cc1CN1CC(O)C1` [Compound 53], the IC50 is less than 500 nM at CDK6 cyclinD1; 1000 to 10000 nM against CDK4 cyclinD1; less than 500 nM against Syk; 1000 to 10000 nM on PI3K alpha; 1000 to 10000 nM at PI3K delta; more than 45000 nM on BRD4-2. The IC50 against BRD4-1 was 10000 to 45000 nM; on PI3K gamma (setting [1]) it was more than 45000 nM.
Consider `Cc1nn(-c2ccnc(Nc3ccc(-c4csc5c(=O)cc(N6CCOCC6)oc45)cc3)n2)cc1CN1CCC1` [Compound 54], for which the IC50 at CDK6 cyclinD1 is more than 45000 nM; against CDK4 cyclinD1, more than 45000 nM; on Syk, less than 500 nM; on PI3K alpha, less than 500 nM; against PI3K delta it was less than 500 nM; at BRD4-2, 1000 to 10000 nM. The half-inhibitory concentration (IC50) on BRD4-1 and at PI3K gamma (setting [1]) was 1000 to 10000 nM throughout.
Consider `Cc1nn(-c2ccnc(Nc3ccc(-c4csc5c(=O)cc(N6CCNCC6)oc45)cc3)n2)cc1CN1CCC1` [Compound 55], for which the IC50 was less than 500 nM against CDK6 cyclinD1; 1000 to 10000 nM at CDK4 cyclinD1; less than 500 nM against Syk; more than 45000 nM at PI3K alpha; 1000 to 10000 nM against PI3K delta; more than 45000 nM at BRD4-2. The IC50 at BRD4-1 is 1000 to 10000 nM; at PI3K gamma (setting [1]), more than 45000 nM.
For `Cc1nn(-c2ccnc(Nc3ccc(-c4csc5c(=O)cc(N6CCN(C(=O)OC(C)(C)C)CC6)oc45)cc3)n2)cc1CN1CC(O)C1` [Compound 56], the IC50 against CDK6 cyclinD1 is 500 to 1000 nM; on CDK4 cyclinD1, 1000 to 10000 nM; on Syk it was less than 500 nM; against PI3K alpha, 1000 to 10000 nM; at PI3K delta it was 1000 to 10000 nM; against BRD4-2 it was more than 45000 nM. The IC50 against BRD4-1 fell in the range of 1000 to 10000 nM; on PI3K gamma (setting [1]), 10000 to 45000 nM.
As for `Cc1nn(-c2ccnc(Nc3ccc(-c4csc5c(=O)cc(N6CCOCC6)oc45)cc3)n2)cc1CN(C)C` [Compound 57], the IC50 on CDK6 cyclinD1 was less than 500 nM; against CDK4 cyclinD1, less than 500 nM; at Syk, less than 500 nM; against PI3K alpha, 500 to 1000 nM; against PI3K delta, 500 to 1000 nM; at BRD4-2, 1000 to 10000 nM. The results for the IC50 on BRD4-1 and on PI3K gamma (setting [1]) were 1000 to 10000 nM and 10000 to 45000 nM, respectively.
On to `Cc1nn(-c2ccnc(Nc3ccc(-c4csc5c(=O)cc(N6CCOCC6)oc45)cc3)n2)cc1CN1CCOCC1` [Compound 58], for which the IC50 against CDK6 cyclinD1 is more than 45000 nM; on CDK4 cyclinD1 it was more than 45000 nM; against Syk it was more than 45000 nM; on PI3K alpha it was 500 to 1000 nM; at PI3K delta, less than 500 nM; on BRD4-2, 1000 to 10000 nM. The IC50 against BRD4-1 lay within 1000 to 10000 nM; on PI3K gamma (setting [1]) it was 10000 to 45000 nM.
For the compound `Cc1nn(-c2ccnc(Nc3ccc(-c4csc5c(=O)cc(N6CCOCC6)oc45)cc3)n2)cc1CN(C)CCO` [Compound 59], the IC50 lay within 1000 to 10000 nM against CDK6 cyclinD1; 1000 to 10000 nM on CDK4 cyclinD1; 500 to 1000 nM on Syk; 1000 to 10000 nM at PI3K alpha; 1000 to 10000 nM against PI3K delta; 1000 to 10000 nM against BRD4-2. In addition, the IC50 at BRD4-1 is 1000 to 10000 nM; on PI3K gamma (setting [1]), 10000 to 45000 nM.

(Values after patent US20230165873A1, “Methods of Use for Single Molecule Compounds Providing Multi-Target Inhibition to Treat Covid 19” (priority 2020, published 2023).)
